# Assay results: patent US7291594B2 (Sanwa Kagaku Kenkyusho Co., Ltd., priority 2002, dated 2007)
# Target: T1, trypsin (Sus scrofa, UniProt P00761)
# T1 construct: purchased Promega V5113
# Assay: Resistance to trypsin (residual cAMP activity)
# Type: in vitro ADME
# Experimental: Then, 5 μl of 500 μg/ml trypsin (Promega Cat. No. V5113) was added to 100 μl of the solution, and the mixture was incubated at 37° C. for 1 hour. The reaction was terminated by adding 1200 μl of 71.5% (final 65%) ethanol, and the reaction solution was centrifuged at 15,000 rpm at 4° C. for 5 minutes to recover a supernatant which was then evaporated into dryness. The dried product was dissolved in distilled water and measured for cAMP activity by the method in Test Example 1, to determine the residual activity (%).
# T1 sequence (P00761 9-231): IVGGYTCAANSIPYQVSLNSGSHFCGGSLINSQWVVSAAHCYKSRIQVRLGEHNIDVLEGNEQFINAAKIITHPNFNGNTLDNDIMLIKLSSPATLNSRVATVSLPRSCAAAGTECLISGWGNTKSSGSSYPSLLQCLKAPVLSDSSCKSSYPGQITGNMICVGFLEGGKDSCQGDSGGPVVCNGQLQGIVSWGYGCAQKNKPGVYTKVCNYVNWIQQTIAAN
smiles,measurement,setting,value
"CC[C@H](C)[C@H](NC(=O)[C@H](Cc1ccccc1)NC(=O)[C@H](CCC(=O)O)NC(=O)[C@H](CCC(N)=O)NC(=O)[C@H](C)NC(=O)[C@H](C)NC(=O)[C@H](CCC(N)=O)NC(=O)CNC(=O)[C@H](CCC(=O)O)NC(=O)[C@H](CC(C)C)NC(=O)[C@H](Cc1ccc(O)cc1)NC(=O)[C@H](CO)NC(=O)[C@H](CO)NC(=O)[C@@H](NC(=O)[C@H](CC(=O)O)NC(=O)[C@H](CO)NC(=O)[C@@H](NC(=O)[C@H](Cc1ccccc1)NC(=O)[C@@H](NC(=O)CNC(=O)[C@H](CCC(=O)O)NC(=O)[C@H](C)NC(=O)[C@@H](N)Cc1c[nH]cn1)[C@@H](C)O)[C@@H](C)O)C(C)C)C(=O)N[C@@H](C)C(=O)N[C@@H](Cc1c[nH]c2ccccc12)C(=O)N[C@@H](CC(C)C)C(=O)N[C@H](C(=O)N[C@@H](CC(N)=O)C(=O)NCC(=O)N[C@@H](CCCNC(=N)N)C(N)=O)C(C)C [26Q34N-GLP-1, [Gln^26, Asn^34]-GLP-1 (7-35)-Arg-NH2]",Residual activity (%),"Trypsin + (37° C., 1 hour, pH 7.8)",94.8%
same,Residual activity (%),Trypsin − (not treated),100%
